Experimental data taken from paper PMC5651918, “Evolving stability and pH-dependent activity of the high redox potential Botrytis aclada laccase for enzymatic fuel cells” (Scientific Reports, 2017).

Molecular target: T1, Botrytis aclada laccase (BaL WT) (Botrytis aclada, UniProt H8ZRU2)
T1 construct: BaL cDNA, secreted recombinant from Pichia pastoris X-33 (pGAPZ A, pBaLac)
T1 sequence (H8ZRU2 20-580): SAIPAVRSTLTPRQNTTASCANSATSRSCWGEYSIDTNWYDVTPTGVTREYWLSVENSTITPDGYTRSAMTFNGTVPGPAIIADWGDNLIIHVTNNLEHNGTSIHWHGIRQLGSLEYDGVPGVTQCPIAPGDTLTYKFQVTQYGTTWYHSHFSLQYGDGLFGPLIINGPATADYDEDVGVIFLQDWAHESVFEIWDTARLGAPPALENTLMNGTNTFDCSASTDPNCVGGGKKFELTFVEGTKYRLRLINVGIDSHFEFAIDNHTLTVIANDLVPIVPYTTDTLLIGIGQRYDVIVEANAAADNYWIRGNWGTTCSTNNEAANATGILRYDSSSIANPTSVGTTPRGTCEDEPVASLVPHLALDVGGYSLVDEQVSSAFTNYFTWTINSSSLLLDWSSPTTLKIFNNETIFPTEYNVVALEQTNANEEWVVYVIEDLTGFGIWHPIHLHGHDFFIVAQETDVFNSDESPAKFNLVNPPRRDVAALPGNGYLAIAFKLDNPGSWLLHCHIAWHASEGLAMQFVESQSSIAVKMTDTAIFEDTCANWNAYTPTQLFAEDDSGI
Assay: steady-state photometric kinetics, Michaelis-Menten fit
Assay type: biochemical
Conditions: pH 3.0, 4.5 and 6.0; apparent constants

SMILES: CCn1c(=NN=c2sc3cc(S(=O)(=O)O)ccc3n2CC)sc2cc(S(=O)(=O)O)ccc21 [ABTS, 2,2′-azino-bis(3-ethylbenzothiazoline-6-sulfonic acid)]
- KM: apparent steady-state kinetic constants were determined for the two substrates DMP and ABTS

SMILES: COc1cccc(OC)c1O [DMP, 2,6-dimethoxyphenol]
- KM: apparent steady-state kinetic constants were determined for the two substrates DMP and ABTS
